target: T1, human TLR7 (Homo sapiens, UniProt Q9NYK1); experiment: Human TLR7 agonist activity assay (HEK-Blue TLR7 SEAP reporter); format: cell-based; settings: HEK-Blue TLR7 cells, 18 h treatment, average where assay performed multiple times, read-out: hTLR7 Agonism EC50
T1 construct: host or cells: HEK-Blue TLR7 cells (engineered human embryonic kidney cells)
T1 sequence (Q9NYK1 27-1049): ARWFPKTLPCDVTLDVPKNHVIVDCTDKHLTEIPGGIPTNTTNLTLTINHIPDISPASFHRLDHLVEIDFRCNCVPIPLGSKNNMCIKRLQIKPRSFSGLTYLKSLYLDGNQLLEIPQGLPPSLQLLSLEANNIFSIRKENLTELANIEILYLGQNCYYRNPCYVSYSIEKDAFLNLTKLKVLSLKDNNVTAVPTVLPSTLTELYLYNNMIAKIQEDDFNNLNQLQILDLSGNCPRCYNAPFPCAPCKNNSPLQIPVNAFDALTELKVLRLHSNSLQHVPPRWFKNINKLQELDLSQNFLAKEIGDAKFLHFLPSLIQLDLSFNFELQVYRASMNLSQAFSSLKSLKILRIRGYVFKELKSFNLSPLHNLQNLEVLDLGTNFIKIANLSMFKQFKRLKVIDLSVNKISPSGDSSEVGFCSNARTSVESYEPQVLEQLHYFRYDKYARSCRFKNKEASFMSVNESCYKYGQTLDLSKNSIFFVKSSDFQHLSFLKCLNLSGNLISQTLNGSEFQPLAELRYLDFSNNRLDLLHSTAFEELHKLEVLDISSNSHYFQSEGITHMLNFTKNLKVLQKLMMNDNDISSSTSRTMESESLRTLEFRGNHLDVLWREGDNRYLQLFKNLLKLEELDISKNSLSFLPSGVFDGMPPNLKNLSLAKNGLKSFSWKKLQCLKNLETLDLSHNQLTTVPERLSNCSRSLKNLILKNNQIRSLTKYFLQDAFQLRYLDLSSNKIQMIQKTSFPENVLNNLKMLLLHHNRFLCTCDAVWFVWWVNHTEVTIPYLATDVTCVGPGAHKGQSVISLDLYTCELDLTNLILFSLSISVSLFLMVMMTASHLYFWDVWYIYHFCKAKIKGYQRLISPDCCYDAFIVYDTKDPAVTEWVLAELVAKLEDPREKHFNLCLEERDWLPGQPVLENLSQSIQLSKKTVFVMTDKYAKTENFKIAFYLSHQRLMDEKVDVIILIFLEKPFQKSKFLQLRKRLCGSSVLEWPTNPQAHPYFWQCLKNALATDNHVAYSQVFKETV
Experimental: This procedure describes a method for assaying human TLR7 (hTLR7) agonist activity of the compounds disclosed in this specification.
HEK-Blue™ TLR7 cells were added to each well of a 384-well tissue-culture plate (15,000 cells per well) and incubated 16-18 h at 37° C., 5% CO2. Compounds (100 nl) were dispensed into wells containing the HEK-Blue™ TLR cells and the treated cells were incubated at 37° C., 5% CO2. After 18 h treatment ten microliters of freshly-prepared Quanti-Blue™ reagent (Invivogen) was added to each well, incubated for 30 min (37° C., 5% CO2) and SEAP levels measured using an Envision plate reader (OD=620 nm). The half maximal effective concentration values (EC50; compound concentration which induced a response halfway between the assay baseline and maximum) were calculated.

Question: With CCC[C@@H](CCO)Nc1nc(N)nc2cnn(Cc3ncc(C4CCCNC4)cc3OC)c12 (single isomer, unassigned) [Compound 201] as the compound, how does the EC50 read?
Answer: Its EC50 is 256 nM.

Question: CCC[C@@H](CCO)Nc1nc(N)nc2cnn(Cc3ncc(C4CCN(C5CCOC5)CC4)cc3OC)c12 (single isomer, unassigned) [Compound 211] was tested. Which EC50 did it give?
Answer: Its EC50 is 123 nM.

Question: CCC[C@@H](CCO)Nc1nc(N)nc2cnn(Cc3ncc(C4CCN(C5CCOC5)CC4)cc3OC)c12 (single isomer, unassigned) [Compound 212] was tested. Which EC50 did it give?
Answer: The EC50 was 6.5 nM.

Question: Which EC50 does the source give for CCCCNc1nc(N)nc2cnn(Cc3ncc(C4CCN(C(CC)CC)CC4)cc3OC)c12 [Compound 130, N7-butyl-1-({3-methoxy-5-[1-(pentan-3-yl)piperidin-4-yl]pyridin-2-yl}methyl)-1H-pyrazolo[4,3-d]pyrimidine-5,7-diamine] here?
Answer: Its EC50 is 119 nM.

Question: Which EC50 does the source give for COc1cc(C2CCN(CCN(C)C)CC2)cnc1Cn1ncc2nc(N)nc(NCc3cc(C)on3)c21 [Compound 145, 1-[(5-{1-[2-(dimethylamino)ethyl]piperidin-4-yl}-3-methoxypyridin-2-yl)methyl]-N7-[(5-methyl-1,2-oxazol-3-yl)methyl]-1H-pyrazolo[4,3-d]pyrimidine-5,7-diamine] here?
Answer: Its EC50 is 101 nM.

Question: With COc1cc(C2CCNCC2)cnc1Cn1ncc2nc(N)nc(NCC3CC4(CC4)C3)c21 [Compound 152, 1-{[3-methoxy-5-(piperidin-4-yl)pyridin-2-yl]methyl}-N7-({spiro[2.3]hexan-5-yl}methyl)-1H-pyrazolo[4,3-d]pyrimidine-5,7-diamine] as the compound, how does the EC50 read?
Answer: The EC50 was 111 nM.

Question: Which EC50 does the source give for COc1cc(C2CCN(CCO)CC2)cnc1Cn1ncc2nc(N)nc(NCC3CC4(CC4)C3)c21 [Compound 153, 2-{4-[6-({5-amino-7-[({spiro[2.3]hexan-5-yl}methyl)amino]-1H-pyrazolo[4,3-d]pyrimidin-1-yl}methyl)-5-methoxypyridin-3-yl]piperidin-1-yl}ethan-1-ol] here?
Answer: Its EC50 is 86.8 nM.

Question: With COc1cc(C2CCN(C(=O)CCN(C)C)CC2)cnc1Cn1ncc2nc(N)nc(NCC3CC4(CC4)C3)c21 [Compound 155, 1-{4-[6-({5-amino-7-[({spiro[2.3]hexan-5-yl}methyl)amino]-1H-pyrazolo[4,3-d]pyrimidin-1-yl}methyl)-5-methoxypyridin-3-yl]piperidin-1-yl}-3-(dimethylamino)propan-1-one] as the compound, how does the EC50 read?
Answer: Its EC50 is 199 nM.

Question: For COc1cc(C2CCN(C(C)C)CC2)cnc1Cn1ncc2nc(N)nc(NCC3CC4(CC4)C3)c21 [Compound 156, 1-({3-methoxy-5-[1-(propan-2-yl)piperidin-4-yl]pyridin-2-yl}methyl)-N7-({spiro[2.3]hexan-5-yl}methyl)-1H-pyrazolo[4,3-d]pyrimidine-5,7-diamine], which EC50 is on record?
Answer: The EC50 was 40.9 nM.

Question: Which EC50 does the source give for CCCCNc1nc(N)nc2cnn(Cc3ccc(C4CCNCC4)cc3OC)c12 [Compound 160, N7-butyl-1-{[2-methoxy-4-(piperidin-4-yl)phenyl]methyl}-1H-pyrazolo[4,3-d]pyrimidine-5,7-diamine] here?
Answer: The EC50 was 13 nM.

Question: For CCCCNc1nc(N)nc2cnn(Cc3ccc(C4CCN(C(=O)CC(C)(C)O)CC4)cc3OC)c12 [Compound 162, 1-[4-(4-{[5-amino-7-(butylamino)-1H-pyrazolo[4,3-d]pyrimidin-1-yl]methyl}-3-methoxyphenyl)piperidin-1-yl]-3-hydroxy-3-methylbutan-1-one], which EC50 is on record?
Answer: Its EC50 is 12.2 nM.

Question: COc1cc(C2CCN(C3CCOCC3)CC2)cnc1Cn1ncc2nc(N)nc(NCc3noc(C)n3)c21 [Compound 200, 1-({3-methoxy-5-[1-(oxan-4-yl)piperidin-4-yl]pyridin-2-yl}methyl)-N7-[(5-methyl-1,2,4-oxadiazol-3-yl)methyl]-1H-pyrazolo[4,3-d]pyrimidine-5,7-diamine] was tested. Which EC50 did it give?
Answer: The EC50 was 117 nM.

Question: With CCC[C@@H](CCO)Nc1nc(N)nc2cnn(Cc3ccc(C4CN(C(=O)CCN(C)C)CCN4)cc3OC)c12 (stereo partly drawn) [Compound 202, 1-(3-{4-[(5-amino-7-{[(3S)-1-hydroxyhexan-3-yl]amino}-1H-pyrazolo[4,3-d]pyrimidin-1-yl)methyl]-3-methoxyphenyl}piperazin-1-yl)-3-(dimethylamino)propan-1-one] as the compound, how does the EC50 read?
Answer: Its EC50 is 496 nM.

Question: Which EC50 does the source give for CCC[C@@H](CCO)Nc1nc(N)nc2cnn(Cc3ccc(C4CN(C5CCOCC5)CCN4)cc3OC)c12 (stereo partly drawn) [Compound 203, (3S)-3-{[5-amino-1-({2-methoxy-4-[4-(oxan-4-yl)piperazin-2-yl]phenyl}methyl)-1H-pyrazolo[4,3-d]pyrimidin-7-yl]amino}hexan-1-ol] here?
Answer: Its EC50 is 35 nM.

Question: For CCC[C@@H](CCO)Nc1nc(N)nc2cnn(Cc3ncc(C4CCN(Cc5ncn(C)n5)CC4)cc3OC)c12 [Compound 204, (3S)-3-({5-amino-1-[(3-methoxy-5-{1-[(1-methyl-1H-1,2,4-triazol-3-yl)methyl]piperidin-4-yl}pyridin-2-yl)methyl]-1H-pyrazolo[4,3-d]pyrimidin-7-yl}amino)hexan-1-ol], which EC50 is on record?
Answer: Its EC50 is 91.1 nM.

Question: With CCC[C@@H](CCO)Nc1nc(N)nc2cnn(Cc3ncc(C4CCN(CCS(C)(=O)=O)CC4)cc3OC)c12 [Compound 206, (3S)-3-{[5-amino-1-({5-[1-(2-methanesulfonylethyl)piperidin-4-yl]-3-methoxypyridin-2-yl}methyl)-1H-pyrazolo[4,3-d]pyrimidin-7-yl]amino}hexan-1-ol] as the compound, how does the EC50 read?
Answer: The EC50 was 74.9 nM.

Question: Which EC50 does the source give for CCC[C@@H](CCO)Nc1nc(N)nc2cnn(Cc3ncc(C4CCN(Cc5ncco5)CC4)cc3OC)c12 [Compound 207, (3S)-3-({5-amino-1-[(3-methoxy-5-{1-[(1,3-oxazol-2-yl)methyl]piperidin-4-yl}pyridin-2-yl)methyl]-1H-pyrazolo[4,3-d]pyrimidin-7-yl}amino)hexan-1-ol] here?
Answer: Its EC50 is 25.1 nM.

Question: With CCC[C@@H](CCO)Nc1nc(N)nc2cnn(Cc3ncc(C4CCN(C(=O)CN5CCOCC5)CC4)cc3OC)c12 [Compound 208, 1-(4-{6-[(5-amino-7-{[(3S)-1-hydroxyhexan-3-yl]amino}-1H-pyrazolo[4,3-d]pyrimidin-1-yl)methyl]-5-methoxypyridin-3-yl}piperidin-1-yl)-2-(morpholin-4-yl)ethan-1-one] as the compound, how does the EC50 read?
Answer: The EC50 was 168 nM.

Question: How did the EC50 turn out when CCC[C@@H](CCO)Nc1nc(N)nc2cnn(Cc3ccc(C4CN(CC(C)(C)O)CCN4)cc3OC)c12 (stereo partly drawn) [Compound 209, (3S)-3-{[5-amino-1-({4-[4-(2-hydroxy-2-methylpropyl)piperazin-2-yl]-2-methoxyphenyl}methyl)-1H-pyrazolo[4,3-d]pyrimidin-7-yl]amino}hexan-1-ol] was run?
Answer: Its EC50 is 12.3 nM.

Question: CCC[C@@H](CCO)Nc1nc(N)nc2cnn(Cc3ncc(C4CCN(C5CCOC5)CC4)cc3OC)c12 (stereo partly drawn) [Compound 210, (3S)-3-{[5-amino-1-({3-methoxy-5-[1-(oxolan-3-yl)piperidin-4-yl]pyridin-2-yl}methyl)-1H-pyrazolo[4,3-d]pyrimidin-7-yl]amino}hexan-1-ol] was tested. Which EC50 did it give?
Answer: The EC50 was 9.05 nM.

Question: Which EC50 does the source give for CCC[C@@H](CCO)Nc1nc(N)nc2cnn(Cc3ncc(C4CCN(C5CCN(C)CC5)CC4)cc3OC)c12 [Compound 213, (3S)-3-({5-amino-1-[(3-methoxy-5-{1′-methyl-[1,4′-bipiperidine]-4-yl}pyridin-2-yl)methyl]-1H-pyrazolo[4,3-d]pyrimidin-7-yl}amino)hexan-1-ol] here?
Answer: The EC50 was 56.6 nM.

Question: How did the EC50 turn out when CCC[C@@H](CCO)Nc1nc(N)nc2cnn(Cc3ncc(C4CCN(C5CCNCC5)CC4)cc3OC)c12 [Compound 214, (3S)-3-([5-amino-1-[(5-{[1,4′-bipiperidine]-4-yl}-3-methoxypyridin-2-yl)methyl]-1H-pyrazolo[4,3-d]pyrimidin-7-yl}amino)hexan-1-ol] was run?
Answer: Its EC50 is 315 nM.

— patent US20230144824A1, “1H-PYRAZOLO[4,3-d]PYRIMIDINE COMPOUNDS AS TOLL-LIKE RECEPTOR 7 (TLR7) AGONISTS” (BRISTOL-MYERS SQUIBB COMPANY, priority 2020, published 2023)
